Assays:
MK-2206 = compound: NC1(c2ccc(-c3nc4ccn5c(=O)[nH]nc5c4cc3-c3ccccc3)cc2)CCC1 [MK-2206]; settings: max 10 µM
Method in brief: (§1)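 Viability was measured with CellTiter-Glo 2.0 luminescence after 72 hours of dosing at a final DMSO of typically 0.2%, and scaled between blank-well and DMSO-well means. Beforehand, cancer cell lines sat 24 hours at 37°C and 5% CO2 in 1536-well plates in 7.5 μl DMEM/F12 or RPMI with 10% FBS. A non-linear mixed effects model fitted two-parameter logistic curves to the dose responses. The single-agent IC50 comes from these fits.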

AZD2811 = compound: CCN(CCO)CCCOc1ccc2c(Nc3cc(CC(=O)Nc4cccc(F)c4)[nH]n3)ncnc2c1 [AZD2811]; settings: max 1 µM
Method in brief: as §1

AZD5991 = compound: Cc1c2c(nn1C)CSCc1cc(n(C)n1)CSc1cc(c3ccccc3c1)OCCCc1c(C(=O)O)n(C)c3c-2c(Cl)ccc13 [AZD5991]; settings: max 1 µM
Method in brief: as §1

Gefitinib = compound: COc1cc2ncnc(Nc3ccc(F)c(Cl)c3)c2cc1OCCCN1CCOCC1 [Gefitinib]; settings: max 10 µM
Method in brief: as §1

AZD5153 = compound: COc1nnc2ccc(N3CCC(c4ccc(OCCN5CCN(C)C(=O)[C@H]5C)cc4)CC3)nn12 [AZD5153]; settings: max 1 µM
Method in brief: as §1

SN-38 = compound: CCc1c2c(nc3ccc(O)cc13)-c1cc3c(c(=O)n1C2)COC(=O)[C@]3(O)CC [SN-38]; settings: max 0.3 µM
Method in brief: as §1

Lapatinib = compound: CS(=O)(=O)CCNCc1ccc(-c2ccc3ncnc(Nc4ccc(OCc5cccc(F)c5)c(Cl)c4)c3c2)o1 [Lapatinib]; settings: max 10 µM
Method in brief: as §1

Prexasertib = compound: COc1cccc(OCCCN)c1-c1cc(Nc2cnc(C#N)cn2)n[nH]1 [Prexasertib]; settings: max 1 µM
Method in brief: as §1

Doxorubicin = compound: COc1cccc2c1C(=O)c1c(O)c3c(c(O)c1C2=O)C[C@@](O)(C(=O)CO)C[C@@H]3O[C@H]1C[C@H](N)[C@H](O)[C@H](C)O1 [Doxorubicin]; settings: max 1 µM
Method in brief: as §1

AZD7648 = compound: Cc1cc2ncnn2cc1Nc1ncc2c(n1)n(C1CCOCC1)c(=O)n2C [AZD7648]; settings: max 10 µM
Method in brief: as §1

Venetoclax = compound: CC1(C)CCC(CN2CCN(c3ccc(C(=O)NS(=O)(=O)c4ccc(NCC5CCOCC5)c([N+](=O)[O-])c4)c(Oc4cnc5[nH]ccc5c4)c3)CC2)=C(c2ccc(Cl)cc2)C1 [Venetoclax]; settings: max 1 µM
Method in brief: as §1

Dasatinib = compound: CC1=C(C(=CC=C1)Cl)NC(=O)C2=CN=C(S2)NC3=CC(=NC(=N3)C)N4CCN(CC4)CCO [Dasatinib]; settings: max 2 µM
Method in brief: as §1

Crizotinib = compound: C[C@@H](Oc1cc(-c2cnn(C3CCNCC3)c2)cnc1N)c1c(Cl)ccc(F)c1Cl [Crizotinib]; settings: max 10 µM
Method in brief: as §1

Capivasertib = compound: C1CN(CCC1(C(=O)N[C@@H](CCO)C2=CC=C(C=C2)Cl)N)C3=NC=NC4=C3C=CN4 [Capivasertib]; settings: max 10 µM
Method in brief: as §1

AZD6738 = compound: C[C@@H]1COCCN1C2=NC(=NC(=C2)C3(CC3)[S@](=N)(=O)C)C4=C5C=CNC5=NC=C4 [AZD6738]; settings: max 10 µM
Method in brief: as §1

Taselisib = compound: Cc1nc(-c2cn3c(n2)-c2ccc(-c4cnn(C(C)(C)C(N)=O)c4)cc2OCC3)n(C(C)C)n1 [Taselisib]; settings: max 10 µM
Method in brief: as §1

AZD4320 = compound: CN(CC[C@H](CSC1=CC=CC=C1)NC2=C(C=C(C=C2)S(=O)(=O)NC(=O)C3=CC=C(C=C3)N4CCC(CC4)[C@H](C5=CC=CC=C5C6=CC=C(C=C6)Cl)O)S(=O)(=O)C(F)(F)F)CCO [AZD4320]; settings: max 1 µM
Method in brief: as §1

AZD0156 = compound: CN(C)CCCOc1ccc(-c2ccc3ncc4c(c3c2)n(C2CCOCC2)c(=O)n4C)cn1 [AZD0156]; settings: max 3 µM
Method in brief: as §1

Savolitinib = compound: C[C@@H](c1ccc2nccn2c1)n1nnc2ncc(-c3cnn(C)c3)nc21 [Savolitinib]; settings: max 1 µM
Method in brief: as §1

Selumetinib = compound: Cn1cnc2c(F)c(Nc3ccc(Br)cc3Cl)c(C(=O)NOCCO)cc21 [Selumetinib]; settings: max 10 µM
Method in brief: as §1

Alisertib = compound: COc1cc(Nc2ncc3c(n2)-c2ccc(Cl)cc2C(c2c(F)cccc2OC)=NC3)ccc1C(=O)O [Alisertib]; settings: max 10 µM
Method in brief: as §1

SG3199 = compound: CC1=CN2[C@@H](C1)C=NC3=CC(=C(C=C3C2=O)OC)OCCCCCOC4=C(C=C5C(=C4)N=C[C@@H]6CC(=CN6C5=O)C)OC [SG3199]; settings: max 0.001 µM
Method in brief: as §1

AZD1390 = compound: CC(C)n1c(=O)n(C)c2cnc3cc(F)c(-c4ccc(OCCCN5CCCCC5)nc4)cc3c21 [AZD1390]; settings: max 0.3 µM
Method in brief: as §1

Trametinib = compound: CC(=O)Nc1cccc(-n2c(=O)n(C3CC3)c(=O)c3c(Nc4ccc(I)cc4F)n(C)c(=O)c(C)c32)c1 [Trametinib]; settings: max 1 µM
Method in brief: as §1

Palbociclib = compound: CC(=O)c1c(C)c2cnc(Nc3ccc(N4CCNCC4)cn3)nc2n(C2CCCC2)c1=O [Palbociclib]; settings: max 10 µM
Method in brief: as §1

AZD8186 = compound: C[C@@H](Nc1cc(F)cc(F)c1)c1cc(C(=O)N(C)C)cc2c(=O)cc(N3CCOCC3)oc12 [AZD8186]; settings: max 3 µM
Method in brief: as §1

AZD1775 = compound: C=CCn1c(=O)c2cnc(Nc3ccc(N4CCN(C)CC4)cc3)nc2n1-c1cccc(C(C)(C)O)n1 [AZD1775]; settings: max 3 µM
Method in brief: as §1

Olaparib = compound: O=C(c1cc(Cc2n[nH]c(=O)c3ccccc23)ccc1F)N1CCN(C(=O)C2CC2)CC1 [Olaparib]
Method in brief: as §1

Cell Line | IC50, cell viability 72 h (MK-2206) [µM] | IC50, cell viability 72 h (AZD2811) [µM] | IC50, cell viability 72 h (AZD5991) [µM] | IC50, cell viability 72 h (Gefitinib) [µM] | IC50, cell viability 72 h (AZD5153) [µM] | IC50, cell viability 72 h (SN-38) [µM] | IC50, cell viability 72 h (Lapatinib) [µM] | IC50, cell viability 72 h (Prexasertib) [µM] | IC50, cell viability 72 h (Doxorubicin) [µM] | IC50, cell viability 72 h (AZD7648) [µM] | IC50, cell viability 72 h (Venetoclax) [µM] | IC50, cell viability 72 h (Dasatinib) [µM] | IC50, cell viability 72 h (Crizotinib) [µM] | IC50, cell viability 72 h (Capivasertib) [µM] | IC50, cell viability 72 h (AZD6738) [µM] | IC50, cell viability 72 h (Taselisib) [µM] | IC50, cell viability 72 h (AZD4320) [µM] | IC50, cell viability 72 h (AZD0156) [µM] | IC50, cell viability 72 h (Savolitinib) [µM] | IC50, cell viability 72 h (Selumetinib) [µM] | IC50, cell viability 72 h (Alisertib) [µM] | IC50, cell viability 72 h (SG3199) [µM] | IC50, cell viability 72 h (AZD1390) [µM] | IC50, cell viability 72 h (Trametinib) [µM] | IC50, cell viability 72 h (Palbociclib) [µM] | IC50, cell viability 72 h (AZD8186) [µM] | IC50, cell viability 72 h (AZD1775) [µM] | IC50, cell viability 72 h (Olaparib; max 10 µM) [µM] | IC50, cell viability 72 h (Olaparib; max 3 µM) [µM]
OVISE (Ovarian Carcinoma) | > 10 | > 1 | > 1 | > 10 | 0.681 | > 0.3 | > 10 | 0.1 | > 1 | > 10 | > 1 | 0.415 | > 10 | > 10 | 5.98 | 0.449 | 0.463 | > 3 | > 1 | > 10 | 8.95 | > 0.001 | > 0.3 | > 1 | > 10 | > 3 | 0.952 | > 10 | 
PFSK-1 (Other Solid Carcinomas) | 2.09 | > 1 | 0.114 | > 10 | > 1 | 0.0324 | > 10 | 0.0404 |  | > 10 | > 1 | > 2 | 3.07 | > 10 | 8.13 | 0.626 | > 1 | > 3 | > 1 | > 10 | > 10 |  | > 0.3 | > 1 | > 10 | > 3 | 1.06 |  | > 3
RPMI-7951 (Melanoma) |  | > 1 | 0.488 | > 10 | 0.63 | 0.0158 | > 10 | 0.0194 | 0.173 | > 10 | > 1 | 0.13 | 5.75 | 3.38 | 2.25 | 2.35 | > 1 | > 3 | > 1 | > 10 | 2.14 | > 0.001 | > 0.3 | 0.136 | > 10 | 2.73 | 0.489 | > 10 | 
SCC-3 (B-Cell Non-Hodgkin's Lymphoma) |  | > 1 | > 1 | > 10 | 0.0674 | 0.0061 | > 10 | 0.0176 | 0.386 | > 10 | > 1 | > 2 | 0.717 | > 10 | 1.07 | > 10 | > 1 | > 3 | > 1 | > 10 | 0.721 | > 0.001 | > 0.3 | > 1 | > 10 | > 3 | 0.37 | > 10 | 
